Measurements as given in patent US7202280B2, “Methods for the treatment and prevention of pancreatitis and for induction of liver regeneration” (priority 2002, dated 2007).

Experiments:
SSAT transgenic rats = experiment: Stability of the analogues in the liver of SSAT transgenic rats without or with MDL72527 (hepatic polyamine pools); assay type: in vivo, rat; conditions: MDL72527 50 mg/kg i.p. twice
Protocol: FIGS. 8A-8D. Hepatic polyamine pools in SSAT transgenic rats treated with methylated polyamine analogues without or with MDL72527. The rats were injected twice with MDL72527 (50 mg/kg i.p.) at 16-h interval. The polyamine analogues (25 mg/kg i.p.) were injected 2 and 8 h later. The animals were sacrificed 24 h after the last MDL72527 injection. There were three to four animals in each group. Put, putrescine; […] Spd, spermidine; Me-Spd, α-methylspermidine; […] The production of transgenic Wistar rats (UKUR30) and mice (UKU181) harboring metallothionein-SSAT fusion gene (Suppola, […]., Porter, C. W., and Jänne, J. (1999) Biochem. […] (2000) Proc. Natl. Acad. Sci. U.S.A. 97, 8290-8295; Lukkarinen, […]., and Alhonen, L. (1997) Stroke 28, 639-645). Partial hepatectomy was carried out according to the original method of Higgins and Anderson (Higgins, G. H., and Anderson, R. M. (1931) Arch. Pathol. 12, 186-202). Treatments before partial hepatectomy and the determination of DNA synthesis were carried out as in ([…]., Suppola, […]., and […]. Biol. Chem. 277, 39867-39872). Transgenic 10 weeks old male rats were injected twice with MDL72527 (50 mg/kg i.p.) at 16-h interval to inactivate PAO according to (Bolkenius, F. N., Bey, P., and Seiler, N. (1985) Biochim. Biophys. […] An aliquot of the homogenates was used for the polyamine assays. The homogenates were centrifuged (at 13 000×g, for 30 min, at 4° C.) and the supernatants were used for the enzyme activity assays. The Institutional Animal Care and Use Committee of the University of Kuopio and by the Provincial Government approved animal experiments. […] Merck (Darmstadt, Germany).

PAO = experiment: Hepatic PAO activity in SSAT transgenic rats after polyamine analogues without or with MDL72527; assay type: in vivo, rat; conditions: MDL72527 50 mg/kg i.p. twice, alone or in combination with the analogues
Protocol: FIGS. 9A–9B. Effect of polyamine analogues without or with MDL72527 on hepatic SSAT (FIG. 9A) and PAO (FIG. 9B) activities in SSAT transgenic rats. The rats were treated with the drugs as described in the legend for FIGS. 8A–8D. There were three to four animals in each group.
The production of transgenic Wistar rats (UKUR30) and mice (UKU181) harboring metallothionein-SSAT fusion gene (Suppola, S., Pietilä, M., Parkkinen, J. J., Korhonen, V. P., Alhonen, L., Halmekytö, M., Porter, C. W., and Jänne, J. (1999) Biochem. J. 338, 311–316) has been described earlier (Alhonen, L., Parkkinen, J. J., Keinänen, T., Sinervirta, R., Herzig, K. H., and Jänne, J. (2000) Proc. Natl. Acad. Sci. U.S.A. 97, 8290–8295; Lukkarinen, J., Gröhn, O., Sinervirta, R., Järvinen, A., Kauppinen, R. A., Jänne, J., and Alhonen, L. (1997) Stroke 28, 639–645). Partial hepatectomy was carried out according to the original method of Higgins and Anderson (Higgins, G. H., and Anderson, R. M. (1931) Arch. Pathol. 12, 186–202). […]
PAO activity was measured to verify the effectiveness of MDL72527 treatment and to determine whether the analogues have any effect on its activity. […]

In the case of `C=C=CCNCCCCNCC=C=C` [MDL72527, reference compound], the “hepatic putrescine and N^1-acetylspermidine pools” value (SSAT transgenic rats) is reported as “greatly reduced putrescine content and increased the pool of N^1-acetylspermidine” and the “hepatic PAO activity” value (PAO) is reported as “virtually completely inhibited PAO activity”.
